Experimental findings from BindingDB's records for patent US20230331683 (University of Virginia Patent Foundation, 2023) are described below.

In general, IC50 refers to the point on the concentration scale where inhibition reaches its midpoint.

Bounds are passed on as bounds.

This experiment concerns the target T1, Sphingosine-1-phosphate transporter SPNS2 (Mus musculus, UniProt Q91VM4).
T1 sequence (Q91VM4 whole entry): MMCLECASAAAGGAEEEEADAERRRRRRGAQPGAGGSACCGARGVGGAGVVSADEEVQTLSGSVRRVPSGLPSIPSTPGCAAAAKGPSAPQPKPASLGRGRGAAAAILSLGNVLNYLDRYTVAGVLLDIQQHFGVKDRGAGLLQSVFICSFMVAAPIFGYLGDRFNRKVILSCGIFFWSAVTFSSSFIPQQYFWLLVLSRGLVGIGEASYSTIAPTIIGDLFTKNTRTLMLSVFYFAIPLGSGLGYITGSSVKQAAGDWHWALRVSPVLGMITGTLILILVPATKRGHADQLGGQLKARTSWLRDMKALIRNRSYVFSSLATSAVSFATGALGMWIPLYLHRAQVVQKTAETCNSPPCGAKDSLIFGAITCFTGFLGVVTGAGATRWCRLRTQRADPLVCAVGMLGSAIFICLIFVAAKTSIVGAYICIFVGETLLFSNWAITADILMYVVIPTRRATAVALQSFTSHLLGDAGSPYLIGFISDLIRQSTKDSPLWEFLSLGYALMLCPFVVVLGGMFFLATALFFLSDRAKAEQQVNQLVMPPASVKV
The experiment is described as follows: S1P Transporter Assay. As for the experimental part:
Transporter assays are vectorial and therefore require measurement of the transported analyte in different compartments. The S1P transporter SPNS2 only exports S1P, which obviates measuring uptake of S1P into transporter-expressing cells. Thus, transporter activity was determined by quantifying S1P release from whole cells expressing SPNS2. SPNS2 inhibitor potency was assessed using whole cell assays. HeLa cells expressing mouse SPNS2 were used to determine inhibitor potency (IC50). Cells were plated onto 12 well plates and assayed when the cell monolayers became confluent. Cell growth media (RPMI-1640 containing 10% fetal bovine serum) was replaced with 2 mL of serum-free media (RPMI-1640) containing fatty acid free bovine serum albumin (BSA) (0.2 % w/v) and supplemented with 4-deoxypyridoxine (DOP) (1 mM), NaF (2 mM), Na3VO4 (0.2 mM) to inhibit S1P degradation. Test articles (1 × 10-9 - 1 × 10^-4 M) were assayed in duplicate or triplicate. After 18 hours, media was collected, an internal recovery standard (0.005 mL of 5 × 10^-7 M deuterated (d7) S 1P in methanol) was added, the BSA was precipitated with trichloroacetic acid and the bound S1P extracted with methanol. S1P and S1P-d7 were measured by liquid chromatography mass spectrometry.
For `CCCCCCCCc1ccc2cc(NC(=O)CCCN)ccc2c1` [US20230331683, Compound 2k], the half-maximal inhibitory concentration (IC50) was above 2000 nM.

Turning to `CCCCCCCCCCc1ccc(NC(=O)[C@@H]2CCN(C(=N)N)C2)cc1` [US20230331683, Compound 4b], the concentration for half-maximal inhibition (IC50) was below 2000 nM.

Turning to `CCCCCCCCCCc1ccc2nc(CCCN)oc2c1` [US20230331683, Compound 8e], the half-maximal inhibitory concentration (IC50) was above 2000 nM.

`CCCCCCCCCCc1ccc2oc(N[C@H]3CCNC3)nc2c1` [US20230331683, Compound 13j]: the half-maximal inhibitory concentration (IC50) was below 2000 nM.

Regarding `CCCCCCCCCCc1ccc2oc(N[C@@H]3CCNC3)nc2c1` [US20230331683, Compound 13k], the 50% inhibitory concentration (IC50) was below 2000 nM.

As for `CCCCCCCCCCc1ccc2nc(N[C@H]3CCNC3)oc2c1` [US20230331683, Compound 13s], the concentration for half-maximal inhibition (IC50) is below 2000 nM.

On to `CCCCCCCCCCc1ccc2nc(N[C@@H]3CCNC3)oc2c1` [US20230331683, Compound 13t], for which the IC50 is below 2000 nM.

`CCCCCCCCCCc1ccc(C(=O)N[C@H]2CCNC2)cc1` [US20230331683, Compound 26a] yielded an IC50 below 2000 nM.

In the case of `CCCCCCCCCCc1ccc(C(=O)N[C@@H]2CCNC2)cc1` [US20230331683, Compound 26b], the IC50 is below 2000 nM.

As for `CCCCCCCCCCc1ccc(C(=O)N(C)[C@@H]2CCNC2)cc1` [US20230331683, Compound 32], the half-inhibitory concentration (IC50) is above 2000 nM.

For the molecule `CCCCCCCCCCc1ccc(C(=S)N[C@@H]2CCNC2)cc1` [US20230331683, Compound 33], the IC50 is below 2000 nM.

Molecule `CCCCCCCCCCc1ccc2oc(NC[C@@H]3CCNC3)nc2c1` [US20230331683, Compound 37] had an IC50 below 2000 nM.

`CCCCCCCCCCc1ccc2oc(NC[C@H]3CCNC3)nc2c1` [US20230331683, Compound 38]: the IC50 was below 2000 nM.
